Laboratory results taken from BindingDB's records for doi:10.1016/S0960-894X(97)10107-X (1997).

Target: 1,3-beta-glucan synthase (Candida albicans)
Assay: In vitro inhibition of 1,3-beta-glucan synthase in Candida albicans membrane assay.

Row | SMILES | IC50
1 | CCC(C)CC(C)CCCCCCCCC(=O)N[C@@H]1C[C@@H](O)[C@@H](O)NC(=O)[C@@H]2[C@@H](O)CCN2C(=O)[C@H]([C@@H](O)CC(N)=O)NC(=O)[C@H]([C@@H](O)[C@H](O)c2ccc(O)c(NC(=O)CCN)c2)NC(=O)[C@@H]2C[C@@H](O)CN2C(=O)[C@H]([C@@H](C)O)NC1=O (some centres undefined) [Pneumocandin analogue] | 70 nM
2 | CCc1cc(C[C@H](O)[C@@H]2NC(=O)[C@@H]3C[C@@H](O)CN3C(=O)[C@H]([C@@H](C)O)NC(=O)[C@H](NC(=O)CCCCCCCCC(C)CC(C)CC)C[C@@H](O)CNC(=O)[C@@H]3[C@@H](O)CCN3C(=O)[C@H]([C@@H](O)CC(N)=O)NC2=O)ccc1O (some centres undefined) [Pneumocandin analogue] | 260 nM
3 | CCC(C)CC(C)CCCCCCCCC(=O)N[C@@H]1C[C@@H](O)CNC(=O)[C@@H]2[C@@H](O)CCN2C(=O)[C@H]([C@@H](O)CC(N)=O)NC(=O)[C@H]([C@@H](O)Cc2ccc(O)c([N+](=O)[O-])c2)NC(=O)[C@@H]2C[C@@H](O)CN2C(=O)[C@H]([C@@H](C)O)NC1=O (some centres undefined) [Pneumocandin analogue] | 4000 nM
4 | CCCc1cc(C[C@H](O)[C@@H]2NC(=O)[C@@H]3C[C@@H](O)CN3C(=O)[C@H]([C@@H](C)O)NC(=O)[C@H](NC(=O)CCCCCCCCC(C)CC(C)CC)C[C@@H](O)CNC(=O)[C@@H]3[C@@H](O)CCN3C(=O)[C@H]([C@@H](O)CC(N)=O)NC2=O)ccc1O (some centres undefined) [Pneumocandin analogue] | 600 nM
5 | C=Cc1cc(C[C@H](O)[C@@H]2NC(=O)[C@@H]3C[C@@H](O)CN3C(=O)[C@H]([C@@H](C)O)NC(=O)[C@H](NC(=O)CCCCCCCCC(C)CC(C)CC)C[C@@H](O)CNC(=O)[C@@H]3[C@@H](O)CCN3C(=O)[C@H]([C@@H](O)CC(N)=O)NC2=O)ccc1O (some centres undefined) [Pneumocandin analogue] | 80 nM
6 | CCC(C)CC(C)CCCCCCCCC(=O)N[C@@H]1C[C@@H](O)CNC(=O)[C@@H]2[C@@H](O)CCN2C(=O)[C@H]([C@@H](O)CC(N)=O)NC(=O)[C@H]([C@@H](O)Cc2ccc(O)c(C=O)c2)NC(=O)[C@@H]2C[C@@H](O)CN2C(=O)[C@H]([C@@H](C)O)NC1=O (some centres undefined) [Pneumocandin analogue] | > 5000 nM
7 | CCC(C)CC(C)CCCCCCCCC(=O)N[C@@H]1C[C@@H](O)CNC(=O)[C@@H]2[C@@H](O)CCN2C(=O)[C@H]([C@@H](O)CC(N)=O)NC(=O)[C@H]([C@@H](O)Cc2ccc(O)cc2)NC(=O)[C@@H]2C[C@@H](O)CN2C(=O)[C@H]([C@@H](C)O)NC1=O (some centres undefined) [Pneumocandin analogue] | 70 nM
8 | CCC(C)CC(C)CCCCCCCCC(=O)N[C@@H]1C[C@@H](O)CNC(=O)[C@@H]2[C@@H](O)CCN2C(=O)[C@H]([C@@H](O)CC(N)=O)NC(=O)[C@H]([C@@H](O)Cc2ccc(O)c(C(=O)OC)c2)NC(=O)[C@@H]2C[C@@H](O)CN2C(=O)[C@H]([C@@H](C)O)NC1=O (some centres undefined) [Pneumocandin analogue] | 3000 nM
9 | CCC(C)CC(C)CCCCCCCCC(=O)N[C@@H]1C[C@@H](O)CNC(=O)[C@@H]2[C@@H](O)CCN2C(=O)[C@H]([C@@H](O)CC(N)=O)NC(=O)[C@H]([C@@H](O)Cc2ccc(O)c(I)c2)NC(=O)[C@@H]2C[C@@H](O)CN2C(=O)[C@H]([C@@H](C)O)NC1=O (some centres undefined) [Pneumocandin analogue] | 100 nM
10 | CCC(C)CC(C)CCCCCCCCC(=O)N[C@@H]1C[C@@H](O)[C@@H](O)NC(=O)[C@@H]2[C@@H](O)CCN2C(=O)[C@H]([C@@H](O)CC(N)=O)NC(=O)[C@H]([C@@H](O)[C@H](O)c2ccc(O)c(NC(=O)CCC(=O)O)c2)NC(=O)[C@@H]2C[C@@H](O)CN2C(=O)[C@H]([C@@H](C)O)NC1=O (some centres undefined) [Pneumocandin analogue] | 150 nM
11 | CCC(C)CC(C)CCCCCCCCC(=O)N[C@@H]1C[C@@H](O)[C@@H](O)NC(=O)[C@@H]2[C@@H](O)CCN2C(=O)[C@H]([C@@H](O)CC(N)=O)NC(=O)[C@H]([C@@H](O)[C@H](O)c2ccc(O)c(I)c2)NC(=O)[C@@H]2C[C@@H](O)CN2C(=O)[C@H]([C@@H](C)O)NC1=O (some centres undefined) [Pneumocandin analogue] | 100 nM
12 | CCC(C)CC(C)CCCCCCCCC(=O)N[C@@H]1C[C@@H](O)[C@@H](O)NC(=O)[C@@H]2[C@@H](O)CCN2C(=O)[C@H]([C@@H](O)CC(N)=O)NC(=O)[C@H]([C@@H](O)[C@H](O)c2ccc(O)c(N)c2)NC(=O)[C@@H]2C[C@@H](O)CN2C(=O)[C@H]([C@@H](C)O)NC1=O (some centres undefined) [Pneumocandin analogue] | 40 nM
13 | CCC(C)CC(C)CCCCCCCCC(=O)N[C@@H]1C[C@@H](O)CNC(=O)[C@@H]2[C@@H](O)CCN2C(=O)[C@H]([C@@H](O)CC(N)=O)NC(=O)[C@H]([C@@H](O)Cc2ccc(O)c(/C=C/C(=O)OC)c2)NC(=O)[C@@H]2C[C@@H](O)CN2C(=O)[C@H]([C@@H](C)O)NC1=O (some centres undefined) [Pneumocandin analogue] | 150 nM
14 | CCC(C)CC(C)CCCCCCCCC(=O)N[C@@H]1C[C@@H](O)CNC(=O)[C@@H]2[C@@H](O)CCN2C(=O)[C@H]([C@@H](O)CC(N)=O)NC(=O)[C@H]([C@@H](O)Cc2ccc(O)c(N)c2)NC(=O)[C@@H]2C[C@@H](O)CN2C(=O)[C@H]([C@@H](C)O)NC1=O (some centres undefined) [Pneumocandin analogue] | 50 nM
15 | CCC(C)CC(C)CCCCCCCCC(=O)N[C@@H]1C[C@@H](O)CNC(=O)[C@@H]2[C@@H](O)CCN2C(=O)[C@H]([C@@H](O)CC(N)=O)NC(=O)[C@H]([C@@H](O)Cc2ccc(O)c(CCN)c2)NC(=O)[C@@H]2C[C@@H](O)CN2C(=O)[C@H]([C@@H](C)O)NC1=O (some centres undefined) [Pneumocandin analogue] | 200 nM
16 | CCC(C)CC(C)CCCCCCCCC(=O)N[C@@H]1C[C@@H](O)[C@@H](O)NC(=O)[C@@H]2[C@@H](O)CCN2C(=O)[C@H]([C@@H](O)CC(N)=O)NC(=O)[C@H]([C@@H](O)[C@H](O)c2cc(I)c(O)c(I)c2)NC(=O)[C@@H]2C[C@@H](O)CN2C(=O)[C@H]([C@@H](C)O)NC1=O (some centres undefined) [Pneumocandin analogue] | > 10000 nM
17 | CCC(C)CC(C)CCCCCCCCC(=O)N[C@@H]1C[C@@H](O)CNC(=O)[C@@H]2[C@@H](O)CCN2C(=O)[C@H]([C@@H](O)CC(N)=O)NC(=O)[C@H]([C@@H](O)Cc2ccc(O)c(CCO)c2)NC(=O)[C@@H]2C[C@@H](O)CN2C(=O)[C@H]([C@@H](C)O)NC1=O (some centres undefined) [Pneumocandin analogue] | 60 nM
18 | CCC(C)CC(C)CCCCCCCCC(=O)N[C@@H]1C[C@@H](O)[C@@H](O)NC(=O)[C@@H]2[C@@H](O)CCN2C(=O)[C@H]([C@@H](O)CC(N)=O)NC(=O)[C@H]([C@@H](O)[C@H](O)c2ccc(O)c(NC(=O)CN)c2)NC(=O)[C@@H]2C[C@@H](O)CN2C(=O)[C@H]([C@@H](C)O)NC1=O (some centres undefined) [Pneumocandin analogue] | 35 nM
19 | CCC(C)CC(C)CCCCCCCCC(=O)N[C@@H]1C[C@@H](O)[C@@H](O)NC(=O)[C@@H]2[C@@H](O)CCN2C(=O)[C@H]([C@@H](O)CC(N)=O)NC(=O)[C@H]([C@@H](O)[C@H](O)c2ccc(O)c([N+](=O)[O-])c2)NC(=O)[C@@H]2C[C@@H](O)CN2C(=O)[C@H]([C@@H](C)O)NC1=O (some centres undefined) [Pneumocandin analogue] | 2900 nM
